Measured values from patent US8669257B2, “Phenazine derivatives and uses thereof as potassium channel modulators” (The Johns Hopkins University, priority 2007, dated 2014).
Entries after “also recorded” stand apart in the source; their conditions may differ.

Columns and labels:
[1] = system: calcineurin; experiment: Calcineurin enzymatic activity in vitro; format: biochemical; conditions: substrates para-nitrophenylphosphate or immunoprecipitated NFATc2
[2] = system: calcium influx in Jurkat T-cells; experiment: Calcium imaging assay: store-depletion induced calcium influx in Jurkat T-cells; format: cell-based, human; conditions: thapsigargin then 2 mM Ca2+; clofazimine preincubated 5 min
Method: JurkaT-cells were attached to L-lysine-coated glass dishes (MatTek). Cells were loaded with fura-2-AM (Invitrogen_F-1201) for 45 min before they were washed sequentially with growth medium and Ca^2+-free HBSS. Fluorescence excitation wavelengths were set at 350 and 380 nm, respectively, on a Zeiss Axiovert 200M microscope while emission wavelength was set at 510 nm. Changes in intracellular calcium concentrations were determined by fluorescence intensity ratio ([…]/F380).

**Q.** `CC(C)/N=c1\cc2n(-c3ccc(Cl)cc3)c3ccccc3nc-2cc1Nc1ccc(Cl)cc1` [clofazimine, Clofazimine] was tested. Which “effect on enzymatic activity of calcineurin in vitro” value [1] did it give?
**A.** no effect on the enzymatic activity; also recorded: does not inhibit the protein phosphatase activity

**Q.** What about the “effect on calcium entry” value [2] of the same compound?
**A.** inhibited by clofazimine in a heterogeneous fashion; also recorded: only about a quarter of cells are responsive
